# According to patent US20140045832A1, “Insulin-Like Growth Factor-1 Receptor Inhibitors” (PIRAMAL ENTERPRISES LIMITED, priority 2011, published 2014):
# What was measured:
# MCF7 cell line = assay: Anti-proliferative assay (MTS/CCK-8), MCF7; assay type: cell-based; conditions: Homo sapiens; MCF7 (breast cancer) cells, 100 ng/mL IGF without FCS, 72 hours; read-out: Anti-proliferation IC50 (μM) MCF7 cell line
# Protocol: (§1) Anti-proliferative potential of compounds was tested using various cell lines (details provided in Table 2) by MTS (Promega, Cat # G1111), a tetrazolium compound ((3-(4,5-dimethylthiazol-2-yl)-5-(3-carboxymethoxyphenyl)-2-(4-sulphophenyl)-2H-tetrazolium, inner salt; MTS) and Cell Counting kit-8 (CCK-8 a Dojindo's highly water-soluble tetrazolium salt of WST-8 [2-(2-methoxy-4-nitrophenyl)-3-(4-nitrophenyl)-5-(2,4-disulfophenyl)-2H-tetrazolium, monosodium salt]). MTS is a colorimetric assay for determining the number of viable cells in proliferation, cytotoxicity or chemosensitivity assays. This is used with an electron coupling reagent PMS (Phenazine methosulfate). MTS is bioreduced by cells into a formazan that is soluble in tissue culture medium. The absorbance of the formazan at 490 nm can be measured directly from 96 well assay plates without additional processing. Dehydrogenase enzymes found in metabolically active cells accomplish the conversion of MTS into the aqueous soluble formazan. The quantity of formazan product is directly proportional to the number of living cells in culture. In CCK-8, WST-8 is reduced by dehydrogenases in cells to give a yellow colored product formazan, which is measured at 450 nm.
# (§2) For experimental purposes, cells were seeded at a density of 3000-5000 cells per well in 180 μL/well volume in transparent 96 well tissue culture plate (NUNC, USA) and incubated overnight at 37° C., 5% CO2. […] Plates were incubated for 3-4 hours and absorbance was measured at 490 nm on Spectrophotometer (SpectraMax, Molecular Devices). Percentage cytotoxicity and IC50 was calculated using SoftMax software. […] After 4 hour incubation, the absorbance was determined at 450 nm using Spectrophotometer (SpectraMax, Molecular Devices). […]
# HT29 cell line = assay: Anti-proliferative assay (MTS/CCK-8), HT29; assay type: cell-based; conditions: Homo sapiens, HT-29; HT29 (colon cancer) cells, 100 ng/mL IGF without FCS, 72 hours; read-out: Anti-proliferation IC50 (μM) HT29 cell line
# Protocol: as §1, §2
# human IGF-1R = biological target: T1, human IGF-1R (Homo sapiens, UniProt P08069); assay: In vitro IGF-1R kinase assay (HTRF); assay type: biochemical; conditions: intracellular kinase domain GST fusion, ATP 20 μM, 1 hour at 23° C., read-out: IGFIR-Activity
# T1 construct: IGFRK and IRK enzyme used for the assay was intracellular kinase domain of human IGF-1R and human IR; made in house
# T1 sequence (P08069 999-1274 limits assumed): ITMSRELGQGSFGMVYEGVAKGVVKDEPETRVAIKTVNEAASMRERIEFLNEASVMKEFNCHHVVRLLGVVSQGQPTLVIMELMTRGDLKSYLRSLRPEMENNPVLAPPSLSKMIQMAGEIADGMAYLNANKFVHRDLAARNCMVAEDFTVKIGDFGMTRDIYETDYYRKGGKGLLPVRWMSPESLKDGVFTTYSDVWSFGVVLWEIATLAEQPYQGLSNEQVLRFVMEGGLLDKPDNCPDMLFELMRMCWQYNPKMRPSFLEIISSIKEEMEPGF
# Protocol: The in vitro kinase assays using IGF-1R and IR kinase GST fusion proteins were conducted using a homogeneous time-resolved fluorescence (HTRF) format. […] The standard enzyme reaction buffer consisted of 50 mM Tris HCL (pH: 7.4), 1 mM EGTA, 10 mM MgCl2, 2 mM DTT, 0.01% Tween-20, IGF-1R/IR kinase enzyme, poly GT peptide substrate (Perkin Elmer [Ulight Glu-Tyr (4:1)]n) and ATP [concentration equivalent to Kmapp]. […] Briefly, 2.5 μL enzyme and 2.5 μL inhibitor was pre-incubated for 10 minutes at 23° C. followed by the addition of 2.5 μL of poly GT substrate (final concentration of 50 nM). Reaction was initiated with the addition of 2.5 μL of ATP (final concentration of 20 μM for IGF-1R assay and 10 μM for IR assay). After 1 hour incubation at 23° C., the kinase reaction was stopped with the addition of 5 μL EDTA (final concentration of 10 mM in 20 μL). Europium cryptate—labeled antiphosphotyrosine antibody PY20 (5 μL) was added (final concentration of 2 nM) and the mixture was allowed to equilibrate for 1 hour at 23° C. followed by reading the plate in an Envision plate reader. The intensity of light emission at 665 nm was directly proportional to the level of substrate phosphorylation. The IC50 values for inhibitors were determined by a four-parameter sigmoidal curve fit (Sigma plot or Graph pad).
# IGFRK and IRK enzyme used for the assay was intracellular kinase domain of human IGF-1R and human IR cloned and expressed as GST fusion proteins using the baculovirus expression system and purified using glutathione—Sepharose column.
# CYP3A4 = biological target: T2, CYP3A4 (Homo sapiens, UniProt P08684); assay: CYP inhibition fluorescence assay (rhCYP450, Vivid Invitrogen kit); assay type: in vitro ADME; conditions: recombinant human CYP3A4, 10 μM compound, read-out: % inhibition of CYP 3A4 at 10 μM
# T2 construct: purchased Invitrogen (Vivid screening kits)
# T2 sequence (P08684 whole entry): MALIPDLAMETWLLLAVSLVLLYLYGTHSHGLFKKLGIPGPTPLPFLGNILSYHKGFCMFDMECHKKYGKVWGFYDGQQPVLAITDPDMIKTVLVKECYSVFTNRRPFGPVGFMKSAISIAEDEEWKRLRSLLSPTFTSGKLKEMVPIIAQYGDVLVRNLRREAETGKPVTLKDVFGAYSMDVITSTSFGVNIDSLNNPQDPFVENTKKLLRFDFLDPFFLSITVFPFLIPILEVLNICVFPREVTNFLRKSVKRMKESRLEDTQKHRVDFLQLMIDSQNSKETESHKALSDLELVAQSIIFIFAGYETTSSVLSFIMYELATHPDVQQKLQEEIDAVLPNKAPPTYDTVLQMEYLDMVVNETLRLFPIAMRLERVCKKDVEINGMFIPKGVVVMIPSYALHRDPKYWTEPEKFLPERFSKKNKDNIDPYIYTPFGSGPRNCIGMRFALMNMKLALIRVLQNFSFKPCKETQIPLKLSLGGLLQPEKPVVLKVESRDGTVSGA
# Protocol: The % inhibition @ 10 μM data was generated from an rhCYP450/fluorescence assay according to the Vivid Invitrogen screening kits. The compounds were screened against CYP 3A4 isoform because CYP3A4 is responsible for the metabolism of approximately 50-60% of clinical drugs. The lower the percentage inhibition, the lower the CYP450 inhibitory liability of that specific compound.
IC50 (MCF7 cell line) [µM],IC50 (HT29 cell line) [µM],IC50 (human IGF-1R) [nM],inhibition at 10 µM (CYP3A4) [%],SMILES
< 1,5.3,16,,"N#CCCNc1cc(Cl)cc2c(S(=O)(=O)N3CCO[C@H](COc4ccccc4)C3)c(C(N)=O)[nH]c12 [Compound 19, (S)-5-chloro-7-(2-cyanoethylamino)-3-(2-(phenoxymethyl)morpholinosulfonyl)-1H-indole-2-carboxamide]"
0.8,2.8,< 100,,"NC(=O)c1[nH]c2c(NC3CCOCC3)cc(Cl)cc2c1S(=O)(=O)N1CCO[C@H](COc2ccccc2)C1 [Compound 20, (S)-5-chloro-3-(2-(phenoxymethyl)morpholinosulfonyl)-7-(tetrahydro-2H-pyran-4-ylamino)-1H-indole-2-carboxamide]"
0.9,1.7,68.5,47,"CCOC(=O)N1CCC(Nc2cc(Cl)cc3c(S(=O)(=O)N4CCO[C@H](COc5ccccc5)C4)c(C(N)=O)[nH]c23)CC1 [Compound 34, (S)-ethyl 4-(2-carbamoyl-5-chloro-3-(2-(phenoxymethyl)morpholinosulfonyl)-1H-indol-7-ylamino)piperidine-1-carboxylate]"
